Experimental data as given in US5708063A, “Photochromic compound” (Tokuyama Corporation, priority 1993, dated 1998).

Legend:
Format in all cases: physicochemical
[1] = Photochromic PMMA cast film: initial coloration density, maximum absorption wavelength and fatigue life in xenon fadeometer (Example 9); details: PMMA cast film 0.1 mm; for λmax / Initial color density: xenon light; for Initial color density / T1/2: no stabilizer; for T1/2: time for color density to fall to half of initial value, xenon fadeometer;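 for Initial color density: initial color density is an absorbance value so the % unit is wrong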
Excerpt: The thickness of the cast film was adjusted to 0.1 mm.
(§1) T1/2 is defined as the time required for the color density to decrease to half of its initial value when the film is exposed to the fadeometer.

[2] = Durability of poly(allyl diglycol carbonate) lens impregnated with the compound in silicone oil, as in Example 9 (Example 10); design: Initial color density: unit not given here; details: silicone oil impregnation; for Initial color density: 1.0×10^-4 mole/g; for T1/2: xenon fadeometer
Description: as §1
The solution was impregnated in the surface of a lens composed of poly(allyl diglycol carbonate) at 200° C. for 1 hour. The concentration of the solution was adjusted to 1.0×10^-4 mole/g.

[3] = Fatigue life of photochromic PMMA cast film with ultraviolet stabilizer, xenon fadeometer (Examples 11-14); details: PMMA film, UV stabilizer Cyasorb UV1084, 0.2 part
Description: One hundred parts by weight of benzene, 10 parts by weight of poly(methyl methacrylate), 0.2 part […] The solution was cast on a slide glass (11.2×3.7 cm) to form a cast film having a thickness of 0.1 mm.
The fatigue life of photochromic film was measured as in Example 9 by a xenon long-life fadeometer (FAL-25AX-HC made by Suga Testing Instrument Co., Ltd.).
Example 11 was repeated except that the fulgimide compound obtained in Example 2 was used instead of fulgimide compound used in Example 11.
Example 11 was repeated except that the fulgimide or fulgide compounds shown in Table 28 were used instead of the fulgimide compounds in Example 11, and Cyasorb UV1084 was used as the ultraviolet stabilizer.

Structure (SMILES)	λmax [1] [nm]	Initial color density [1] [%]	T1/2 [1] [h]	λmax [2] [nm]	Initial color density [2]	T1/2 [2] [h]	T1/2 [3] [h]
O=C1OC(=O)C2C1=C(C1CC1)c1cc(Br)sc1C21C2CC3CC(C2)CC1C3 (stereo not shown) [(7), 2-bromo-4-cyclopropyl-6,7-dihydridospirobenzo[5,6-b]thiophenedicarboxyanhydride-7,2'-tricyclo[3.1.1^3.7]decane]	529	1.21	54				220
CCC(C#N)N1C(=O)C2=C(C3CC3[N+](=O)[O-])c3c(sc4c3CCCC4)C3(C4CCCC3(C)CCC4)C2C1=O (stereo not shown) [(25)]	562	0.71	76	565	0.65	79	
CCOC(=O)OCN1C(=O)C2=C(C3C(c4ccccc4)C3c3ccccc3)c3cc(-c4ccc(OC)cc4)sc3C3(C4CCCC3CCC4)C2C1=O (stereo not shown) [(31)]	624	0.77	81	616	0.69	86	
O=C1C2=C(C3CC3)c3sc4c(c3C3(C5CCCC3CCC5)C2C(=O)N1CCc1cccc2ccccc12)CCCC4 (stereo not shown) [(33)]	519	0.56	7.8	525	0.49	80	
CCOC(=O)OCN1C(=O)C2=C(C3CC3c3ccccc3)c3cc(OCC)sc3C3(C4CC5CC(C)(C4)CC3(C)C5)C2C1=O (stereo not shown) [(41)]	557	0.82	65				263
CCn1c2c(c3ccccc31)C(C1CC1)=C1C(=O)OC(=O)C1C21C2CC3CC1CC(C)(C3)C2 (stereo not shown) [(57)]	559	1.21	55				220
O=C1OC(=O)C2C1=C(C1CC1)c1cc([N+](=O)[O-])sc1C21C2CC3CC(C2)CC1C3 (stereo not shown) [(59)]	524	1.21	57				228
CCC(C(=O)OCCc1ccc2ccccc2c1)N1C(=O)C2=C(C)c3ccsc3C3(C4CC5CC(C4)CC3C5)C2C1=O (stereo not shown) [(A), reference compound]	520	0.51	24				
CC1=C2C(=O)N(CCCCC(=O)OCCc3ccc4ccccc4c3)C(=O)C2C2(c3sccc31)C1CC3CC(C1)CC2C3 (stereo not shown) [(B), reference compound]	538	0.49	16				
CC1=C2C(=O)N(CCCc3ccc4cc(N(C)C)ccc4c3)C(=O)C2C2(c3scc([N+](=O)[O-])c31)C1CC3CC(C1)CC2C3 (stereo not shown) [(E), reference compound]	535		14				
CC1=C2C(=O)N(CCc3cccc4ccccc34)C(=O)C2C2(c3c1sc1c3CCCC1)C1CCCC2CCC1 (stereo not shown) [(F), reference compound]	508	0.47	13				
CC1=C2C(=O)OC(=O)C2C2(c3sc4c(c31)CCCC4)C1CCCC2CCC1 (stereo not shown) [(G), reference compound]	585	0.71	10				

Next, values leading:

λmax [1] [nm]	Initial color density [1] [%]	T1/2 [1] [h]	λmax [2] [nm]	Initial color density [2]	T1/2 [2] [h]	T1/2 [3] [h]	Structure (SMILES)
545	0.88	45	550	0.81	49		O=C1C2=C(C3CC3)c3cc(Br)sc3C3(C4CCCC3CCC4)C2C(=O)N1CCc1ccc2ccccc2c1 (stereo not drawn) [(3), 2-bromo-4-cyclopropyl-6,7-dihydrido-N-(β-naphtylethyl)spirobenzo[5,6-b]thiophenedicarboxyimido-7'9'-bicyclo[3.3.1]nonane]
532	0.69	61				244	CCC(C(=O)OCCc1ccc2ccccc2c1)N1C(=O)C2=C(C3CC3)c3ccsc3C3(C4CC5CC(C4)CC3C5)C2C1=O (stereo not shown) [(5)]
549	0.72	57				210	O=C(CCCCN1C(=O)C2=C(C3CC3)c3ccsc3C3(C4CC5CC(C4)CC3C5)C2C1=O)OCCc1ccc2ccccc2c1 (stereo not shown) [(6)]
571	0.69	75	578	0.63	80		Cc1cc2c(s1)C1(C3CCC1CC3)C1C(=O)N(C[N+](=O)[O-])C(=O)C1=C2C1CC1 (stereo not shown) [(8)]
531	0.82	89	535	0.73	95		COC(=O)CN1C(=O)C2=C(C3CC3)c3ccoc3C3(C4CCC3CC4)C2C1=O (stereo not shown) [(20)]
554	0.81	88	559	0.70	93		N#CCN1C(=O)C2=C(C3CC3Oc3ccccc3)c3ccoc3C3(C4CCC3CC4)C2C1=O (stereo not shown) [(22)]
574	0.73	85	580	0.67	90		COC(=O)C(C)N1C(=O)C2=C(C3CC3)c3cc(-c4cccc(OC)c4)sc3C3(C4CC5CC(Cl)(C4)CC3(Cl)C5)C2C1=O (stereo not shown) [(35)]
548	0.57	68	553	0.51	71		CC(=O)OCN1C(=O)C2=C(C3CC3)c3sc(Br)cc3C3(C4CC5CC(C4)CC3C5)C2C1=O (stereo not shown) [(42)]
564	1.15	58				235	O=C1OC(=O)C2C1=C(C1CC1)c1c(sc3ccccc13)C21C2CCC1CC2 (stereo not shown) [(49)]
518	0.90	48				200	O=C1OC(=O)C2C1=C(C1CC1C(F)(F)F)c1sc(Br)cc1C21C2CCC1CC2 (stereo not shown) [(50)]
561	0.92	52	562	0.82	55		COc1cc2c(c(OC)c1OC)C1(C3CCC1CC3)C1C(=O)OC(=O)C1=C2C1CC1 (stereo not shown) [(51)]
525	1.18	56	530	1.08	60		Cc1cc2c(n1C)C1(C3CCCC1CCC3)C1C(=O)OC(=O)C1=C2C1CC1 (stereo not shown) [(53)]
545	1.25	58	550	1.13	61		CCOc1cc2c(s1)C1(C3CCCC1CCC3)C1C(=O)OC(=O)C1=C2C1CC1 (stereo not shown) [(55)]
556	0.72	80					CC1=C2C(=O)N(C[N+](=O)[O-])C(=O)C2C2(c3sc(C)cc31)C1CCC2CC1 (stereo not shown) [(C), reference compound]
535	0.90	48					CC1=C2C(=O)N(CC#N)C(=O)C2C2(c3occc31)C1CCC2CC1 (stereo not shown) [(D), reference compound]
